Among the data in patent US6967196B1, “Sulfonamide compounds and uses thereof” (Bristol-Myers Squibb Company, priority 1999, dated 2005) are IC50 values, retold here.

Counter-ions that a name gives are not always drawn.

The first experiment deals with amyloid β production in transfected H4 (human neuroglioma) cells stably expressing APP constructs. The experiment is described as follows: In vitro cell-based assay of inhibitors of amyloid β production (ELISA). Conditions: Homo sapiens, 16 h, transfected H4 cells expressing APP, approximately 16 hours incubation, amyloid β in medium by ELISA; read-out: ACTIVITY (IC50, inhibition of amyloid β production). The gist of the method:
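H4 neuroglioma cells stably expressing APP constructs were dosed in fresh medium, screened initially at 10-100 μM, and incubated ~16 h. Medium Aβ was measured by ELISA with C-terminal-epitope capture and N-terminal detection antibodies, quantified from a standard curve, with dose-response testing of actives.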
On the technique in general: In an ELISA, binding on a coated surface is turned into a signal by an enzyme label.
As to `CCCCCCCCCCCCCCNC(=O)[C@@H](C)N(c1cc(Cl)ccc1F)S(=O)(=O)c1ccc(Cl)cc1` [Example 1337], the IC50 was over 500 nM.

`CCN(CCCn1ccnc1)C(=O)OC[C@@H](C)N(c1cc(Cl)ccc1CO)S(=O)(=O)c1ccc(Cl)cc1` [Example 1296]: the IC50 is over 10000 nM.

Take `CC(CCCC(C)(C)O)NC(=O)[C@@H](C)N(c1cc(Cl)ccc1F)S(=O)(=O)c1ccc(Cl)cc1` (some centres unmarked) [Example 1335]: the IC50 was over 500 nM.

Staying with this experiment, now noted: Homo sapiens, 16 h, transfected H4 cells stably expressing APP constructs; approximately 16 hours incubation; amyloid β in medium by ELISA; read-out: ACTIVITY (IC50, inhibition of amyloid β production).
For the compound `CC(CCCN1CCOCC1)N(c1cc(Cl)ccc1F)S(=O)(=O)c1ccc(Cl)cc1` (centres unmarked) [Example 1114, 4-chloro-N-(5-chloro-2-fluorophenyl)-N-[4-(4-morpholinyl)-1-methylbutyl]benzenesulfonamide], the IC50 lay in the range of 25 to 50 nM.

`C[C@H](CCN1CCCCC1CS(C)(=O)=O)N(c1cc(Cl)ccc1Cl)S(=O)(=O)c1ccc(Cl)cc1` (stereo partly drawn) [Example 1102, 4-chloro-N-(2,5-dichlorophenyl)-N-[3-[2-[(methylsulfonyl)methyl]-1-piperidinyl]-1(R)-methylpropyl]benzenesulfonamide]: the IC50 was at most 25 nM.

On to `O=S(=O)(c1ccc(Cl)cc1)N(Cc1cc(Cl)ccc1C#CCCO)c1ccccc1` [Example 1089, 4-chloro-N-[5-chloro-2-(4-hydroxy-1-butynyl)benzyl]-N-phenylbenzenesulfonamide], for which the IC50 is over 10000 nM.

Turning to `CN(C)CCCOc1ccccc1CN(c1ccccc1)S(=O)(=O)c1cccc2c(N(C)C)cccc12` [Example 1085, 5-(dimethylamino)-N-{2-[3-(dimethylamino)propoxy]benzyl}-N-phenyl-1-naphthalenesulfonamide], the IC50 is over 10000 nM.

Staying with this experiment, now noted: Homo sapiens, 16 h, transfected H4 cells stably expressing APP; approx. 16 h incubation; amyloid β in medium by ELISA; read-out: ACTIVITY (IC50, inhibition of amyloid β production).
Turning to `O=S(=O)(c1ccc(Cl)cc1)N(Cc1ccccc1Cn1ccnc1)c1cc(F)ccc1F` [Example 772, 4-chloro-N-(2,5-difluorophenyl)-N-[2-(1H-imidazol-1-ylmethyl)benzyl]benzenesulfonamide], the IC50 lay in the range of 100 to 500 nM.

The experiment is the same for the next values; noted with them: Homo sapiens, 16 h, transfected H4 cells stably expressing APP; approximately 16 hours incubation; amyloid β in medium by ELISA; Table B; read-out: ACTIVITY (IC50, inhibition of amyloid β production).
`C[C@H](c1ccccc1CCOC(=O)NCc1ccccc1)N(c1cc(F)ccc1F)S(=O)(=O)c1ccc(Cl)cc1` [Example 389, 2-[2-((1R)-1-{[(4-chlorophenyl)sulfonyl]-2,5-difluoroanilino}ethyl)phenyl]ethyl benzylcarbamate]: the IC50 was in the range of 50 to 100 nM.

Turning to `CC(CNC(=O)OCCc1ccccc1[C@@H](C)N(c1cc(F)ccc1F)S(=O)(=O)c1ccc(Cl)cc1)c1ccccc1` (stereo partly drawn) [Example 402, 2-[2-((1R)-1-{[(4-chlorophenyl)sulfonyl]-2,5-difluoroanilino}ethyl)phenyl]ethyl 2-phenylpropylcarbamate], the IC50 lay within 50 to 100 nM.

The same experiment, now with this note: Homo sapiens, 16 h, transfected H4 cells stably expressing APP; approximately 16 hours incubation; amyloid β in medium by ELISA; read-out: ACTIVITY (IC50, inhibition of amyloid β production).
Consider `O=S1(=O)c2cccc3cccc(c23)N1Cc1ccccc1OCCCN1CCCCC1` [Example 1024, 2-{2-[3-(1-piperidinyl)propoxy]benzyl}-2H-naphtho[1,8-cd]isothiazol 1,1-dioxide hydrochloride], for which the IC50 was over 500 nM.

`COc1cccc(C(=O)N2CCCCC2CCOc2ccccc2CN(c2cc(F)ccc2F)S(=O)(=O)c2ccc(Cl)cc2)c1` (centres unmarked) [Example 909, 4-chloro-N-(2,5-difluorophenyl)-N-(2-{2-[1-(3-methoxybenzoyl)-2-piperidinyl]ethoxy}benzyl)benzenesulfonamide]: the IC50 was over 500 nM.

The experiment is the same for the next values; noted with them: Table B; transfected H4 cells stably expressing APP; approximately 16 hours incubation; amyloid β in medium by ELISA; read-out: ACTIVITY (inhibitory concentration IC50, inhibition of amyloid β production).
For `C[C@H](CCS(=O)(=O)CC(=O)O)N(c1cc(Cl)ccc1Cl)S(=O)(=O)c1ccc(Cl)cc1` [Example 183, (6R)-6-[(2,5-dichlorophenyl)[(4-chlorophenyl)sulfonyl]amino]-3-thioheptanoic Acid, 3,3 Dioxide], the IC50 was 25 to 50 nM.

The same experiment, now with this note: transfected H4 cells stably expressing APP constructs; approximately 16 hours incubation; amyloid β in medium by ELISA; read-out: ACTIVITY (IC50, inhibition of amyloid β production).
Take `C[C@H](CCCSc1ccccc1)N(c1cc(Cl)ccc1CO)S(=O)(=O)c1ccc(Cl)cc1` [Example 1226, 4-chloro-N-[5-chloro-2-(hydroxymethyl)phenyl]-N-[1(R)-methyl-(4-phenylthio)butyl]benzenesulfonamide]: the IC50 was at most 25 nM.

As to `CC1CN(C(=O)CCCC[C@@H](C)N(c2cc(Cl)ccc2F)S(=O)(=O)c2ccc(Cl)cc2)CCS1(=O)=O` (some centres unmarked) [Example 1272], the IC50 was at most 25 nM.

In the case of `CC(C)C[C@@H](NC(=O)CCC[C@@H](C)N(c1cc(Cl)ccc1F)S(=O)(=O)c1ccc(Cl)cc1)C(=O)O` [Example 1271, (R)-4-Chloro-N-(5-chloro-2-fluorophenyl)-N-[5-[N-(R)-[1-(carboxy)-3-methylbutyl]amino]-1-methyl-5-oxopentyl]benzenesulfonamide], the IC50 was 50 to 100 nM.

In the case of `CC(C)C[C@H](NC(=O)CCCC[C@@H](C)N(c1cc(Cl)ccc1F)S(=O)(=O)c1ccc(Cl)cc1)C(=O)O` [Example 1259, (R)-4-Chloro-N-(5-chloro-2-fluorophenyl)-N-[6-[N-(S)-[1-(carboxy)-3-methylbutyl]amino]-1-methyl-6-oxohexyl]benzenesulfonamide], the IC50 was at most 25 nM.

Turning to `CC[S+]([O-])CCC[C@@H](C)N(c1cc(F)ccc1F)S(=O)(=O)c1ccc(Cl)cc1` (stereo partly drawn) [Example 1174, 4-chloro-N-[2,5-difluorophenyl]-N-[1(R)-methyl-(4-ethylsulfinyl)butyl]benzenesulfonamide], the IC50 was at most 25 nM.

In the case of `CSC1CCCN(CCC[C@@H](C)N(c2cc(Cl)ccc2Cl)S(=O)(=O)c2ccc(Cl)cc2)C1` (stereo partly drawn) [Example 1153, 4-chloro-N-(2,5-dichlorophenyl)-N-[4-[(3-methylthio)-1-piperidinyl]-1(R)-methylbutyl]benzenesulfonamide], the IC50 lay in the range of 100 to 500 nM.

Turning to `CC(C)Oc1c(NCCC[C@@H](C)N(c2cc(F)ccc2F)S(=O)(=O)c2ccc(Cl)cc2)c(=O)c1=O` [Example 1120, 4-chloro-N-(2,5-difluorophenyl)-N-[4-(2-isopropoxy-3,4-dioxo-1-cyclobutenyl)amine-1(R)-methylbutyl]benzenesulfonamide], the IC50 was 25 to 50 nM.

Take `CSCCC[C@@H](C)N(c1cc(Cl)ccc1CO)S(=O)(=O)c1ccc(Cl)cc1` [Example 1228, 4-chloro-N-[5-chloro-2-(hydroxymethyl)phenyl]-N-[1(R)-methyl-(4-methylthio)butyl]benzenesulfonamide]: the IC50 was at most 25 nM.

The experiment is the same for the next values; noted with them: transfected H4 cells stably expressing APP; approx. 16 h incubation; amyloid β in medium by ELISA; read-out: ACTIVITY (IC50, inhibition of amyloid β production).
On to “N-{3-[2-(1-{[(4-chlorophenyl)sulfonyl]-2,5-difluoroanilino}ethyl)phenoxy]ethyl}-N-methyl-2-(trifluoromethyl)benzamide [Example 697]”, for which the IC50 fell in the range of 100 to 500 nM.

As to “S-methyl 4-[2-(1-{3-[2-(1-{[(4-chlorophenyl)sulfonyl]-2,5-difluoroanilino}ethyl)phenoxy]butyl(ethyl)thiocarbamate [Example 714]”, the IC50 is 100 to 500 nM.

Take “2-((1R)-1-{[(4-chlorophenyl)sulfonyl]-2,5-difluoroanilino}ethyl)benzyl 2-(diethylamino)ethylcarbamate [Example 662]”: the IC50 was in the range of 100 to 500 nM.

For the compound “N-{3-[2-(1-{[(4-chlorophenyl)sulfonyl]-2,5-difluoroanilino}ethyl)phenoxy]propyl}-4-fluoro-N-methylbenzamide [Example 654]”, the IC50 was 100 to 500 nM.

For “2,4-dichloro-N-{3-[2-(1-{[(4-chlorophenyl)sulfonyl]-2,5-difluoroanilino}ethyl)phenoxy]propyl}-N-methylbenzenesulfonamide [Example 647]”, the IC50 is 100 to 500 nM.

Staying with this experiment, now noted: transfected H4 cells stably expressing APP; approximately 16 hours incubation; amyloid β in medium by ELISA; Table B; read-out: ACTIVITY (IC50, inhibition of amyloid β production).
As for `COC(=O)[C@@H](CS(=O)(=O)Cc1cc(F)ccc1[C@@H](C)N(c1cc(F)ccc1F)S(=O)(=O)c1ccc(Cl)cc1)NC(=O)OC(C)(C)C` [Example 471, Methyl (2S)-2-[(tert-butoxycarbonyl)amino]-3-{[2-((1R)-1-{[(4-chlorophenyl)sulfonyl]-2,5-difluoroanilino}ethyl)-5-fluorobenzyl]sulfonyl}propanoate], the IC50 fell in the range of 50 to 100 nM.

In the case of `COC(=O)C[S+]([O-])CCc1cc(F)ccc1[C@@H](C)N(c1cc(F)ccc1F)S(=O)(=O)c1ccc(Cl)cc1` (stereo partly drawn) [Example 476, Methyl ({2-[2-((1R)-1-{[(4-chlorophenyl)sulfonyl]-2,5-difluoroanilino}ethyl)-5-fluorophenyl]ethyl}sulfinyl)acetate], the IC50 was 100 to 500 nM.

Turning to `COC(=O)CCSCCc1cc(F)ccc1[C@@H](C)N(c1cc(F)ccc1F)S(=O)(=O)c1ccc(Cl)cc1` [Example 473], the IC50 fell in the range of 50 to 100 nM.

The same experiment, now with this note: transfected H4 cells stably expressing APP; approximately 16 hours incubation; amyloid β in medium by ELISA; read-out: ACTIVITY (IC50, inhibition of amyloid β production).
Turning to “S-ethyl 2-[2-(1-{[(4-chlorophenyl)sulfonyl]-2,5-difluoroanilino}ethyl)phenoxy]ethyl(methyl)thiocarbamate [Example 856]”, the IC50 is 100 to 500 nM.

Consider `O=C(OC[C@H](c1ccccc1)N(c1cc(F)ccc1F)S(=O)(=O)c1ccc(Cl)cc1)c1ccncc1` [Example 904, (2S)-2-{[(4-chlorophenyl)sulfonyl]-2,5-difluoroanilino}-2-henylethyl isonicotinate], for which the IC50 is over 500 nM.

For “N-{2-[2-(1-{[(4-chlorophenyl)sulfonyl]-2,5-difluoroanilino}ethyl)phenoxy]ethyl}-N-methyltetradecanamide [Example 854]”, the IC50 fell in the range of 100 to 500 nM.
